Assay results published in patent publication US5780221A, “Identification of enantiomeric ligands” (Whitehead Institute for Biomedical Research, priority 1996, dated 1998).
Ends that are not written are not given here.

Columns and labels:
SH3 domain = biological target: T1, SH3 domain (Gallus gallus, UniProt P00523); test: Direct tryptophan fluorescence spectroscopy titration; format: binding, chicken; details: 1 μM SH3, 15 mM NaCl and 10 mM NaHPO4, pH 7.2; Scatchard analysis
T1 construct: Residues 81 to 140 of chicken c-SRC were cloned; modified TrpLE leader (Met to Leu, Cys to Ala) (N, cleaved yes); His9 within the C-terminal region of the TrpLE leader (N, cleaved yes); made in house; host or cells: E. coli in M9 medium with (15NH4)2SO4, plasmid pMMHb-SRC SH3
Procedure: (§1) The affinity of Pep-DI for the L-SH3 domain was determined by a competitive enzyme-linked immunosorbent assay (ELISA). Single wells of a 96-well plate were coated with 5 μg of the L-SH3 domain (Scott, J. K. and Smith, G. P., Science, 249:386 (1990); Smith, G. P. and Scott, J. K., Methods in Enzymol., 217:228 (1993)). Wells were blocked with BSA, and phages expressing the L-SH3-binding insert […] (SEQ ID NO: 10) were allowed to bind in 10 mM NaHPO4, pH 7.2, 15 mM NaCl, 1 mg/ml of BSA, 0.05% NaN3, and 0.1% Tween 20, in the presence of increasing amounts of competitor peptide. Phage binding was quantified with a rabbit M13 antibody (Stratagene) and alkaline phosphatase-labeled goat antibody to rabbit (Pierce), with a fresh solution of p-nitrophenol phosphate as substrate. Absorbance at 410 nm was determined with a Dynatech micotiter plate reader. […] Relative values for Kd were obtained as described (Minor, D. L., Jr. and Kim, P. S., Nature, 367:660 (1994)). […] A solution of the peptide was titrated into 1 μM SH3 solution in 15 mM NaCl and 10 mM NaHPO4, pH 7.2. Tryptophan fluorescence was induced by excitation at 295 nm (5 nm slit width), and emission was measured at 339 nm (10 nm slit width), with a Hitachi F-4500 fluorescence spectrometer. The dissociation constant was determined by Scatchard analysis.

(L)-SH3 = biological target: T2, (L)-SH3 (Gallus gallus, UniProt P00523); test: Retention of bacterially expressed (L)-SH3 on peptide affinity column; format: binding; details: residues 81-140 of chicken c-Src
T2 construct: E. coli BL21(DE3) pLysS, pMMHb TrpLE-His9 fusion, cleaved with CNBr
Procedure: The L- and D-enantiomers of the chicken c-SRC domain were prepared by bacterial expression and chemical synthesis, respectively. The biotinylated, synthetic, 60-amino acid D-SH3 domain was refolded and purified by affinity chromatography, with a D-amino acid version of a known peptide ligand for the SH3 domain (Yu, H., et al., Cell, 76:933 (1994)).
The all D amino acid SH3 domain, sequence […] S-COOH-terminus (SEQ ID No: 1), residues 81-140 of chicken c-SRC, was synthesized on HMP resin (ABI/Perkin Elmer) with an ABI 431A peptide synthesizer and ABI fastmoc cycles (Fmoc chemistry with HBTU activation and capping with acetic anhydride). Protected D-amino acids were obtained from Bachem California., Bachem Bioscience, Advanced Chemtech, and Novabiochem. For D-Ile and D-Thr, the side chain enantiomers were used, in which the chirality of the side chain is also inverted relative to naturally occurring L-Thr and L-Ile. After completion of the synthesis, the NH2 -terminus of the peptide was modified with NHS-LC-biotin II (Pierce). After cleavage, the peptide was lyophilized, dissolved in 6 M guanidine HCl, pH 6.0, and dialyzed against 100 mM NaHPO4 and 100 mM NaCl, pH 6.0, with the use of dialysis tubing with a molecular cutoff of 3,500 daltons (D) (Spectra/Por). […]

L-SH3 domain = biological target: T3, L-SH3 domain (Gallus gallus, UniProt P00523); test: Competitive enzyme-linked immunosorbent assay (ELISA) for L-SH3 binding; parameters: species or system chicken; details: L- and D-amino acid ligands
T3 construct: Residues 81 to 140 of chicken c-SRC were cloned; modified TrpLE leader (Met to Leu, Cys to Ala) (N, cleaved yes); His9 within the C-terminal region of the TrpLE leader (N, cleaved yes); made in house; host or cells: Escherichia coli BL21(DE3) pLysS, plasmid pMMHb-SRC SH3
Procedure: as §1

Substance | Kd (SH3 domain) | retention of bacterially expressed (L)-SH3 on peptide column ((L)-SH3) | competition with the L-amino acid ligand (L-SH3 domain)
YGGRELPPLPRF-NH2 | 6 µM | can be retained on the (L)-enantiomer | –
(D)-RCLSGLRLGLVPCA [Pep-D1] | – | – | competition observed for the binding of these two ligands
